From BindingDB's records for patent US10730849 (Merck Sharp & Dohme Corp., 2020)
pEC50: −log10 of the molar value.

Target: T1, Stimulator of interferon genes protein [R71H,G230A,H232R,R293Q] (Homo sapiens, UniProt Q86WV6, G230A/H232R/R293Q/R71H)
T1 construct: gene STING1
Assay: STING Biochemical [3H]cGAMP Competition Assay
Source text: The binding assay employs STING receptor obtained from Hi-Five cell membranes overexpressing full-length HAQ STING prepared in-house and tritiated cGAMP ligand also purified in-house.

T1 sequence (Q86WV6 whole entry R71H/G230A/H232R/R293Q, looked up): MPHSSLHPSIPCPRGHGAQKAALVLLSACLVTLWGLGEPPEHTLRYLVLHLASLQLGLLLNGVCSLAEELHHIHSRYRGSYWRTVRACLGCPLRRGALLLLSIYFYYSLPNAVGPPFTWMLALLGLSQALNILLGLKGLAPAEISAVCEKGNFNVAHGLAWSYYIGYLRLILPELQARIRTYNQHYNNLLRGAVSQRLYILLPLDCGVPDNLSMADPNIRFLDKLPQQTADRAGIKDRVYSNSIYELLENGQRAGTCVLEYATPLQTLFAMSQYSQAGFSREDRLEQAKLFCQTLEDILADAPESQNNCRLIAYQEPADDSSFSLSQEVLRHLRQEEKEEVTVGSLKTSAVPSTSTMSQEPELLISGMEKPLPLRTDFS

Structure (SMILES): COc1cc2cc(C(=O)CCC(=O)OC(C)(C)C)sc2cc1OC [US10730849, Example 12]
- pEC50: 5.22
